Results as given in patent publication US20250197393A1, “INTEGRIN INHIBITOR AND USES THEREOF” (Pliant Therapeutics, Inc., priority 2023, published 2025).
Converted amounts (≈) assume the structure as drawn.

Tests used:
Assay type in all cases: physicochemical
[1] = Bulk stability of solid under temperature/humidity stress (HPLC, appearance, XRPD); details: 40° C./75% RH in an open container, 4 weeks; listed as L-tartaric acid cocrystal Pattern A
[2] = Solubility at 37° C. in aqueous and biorelevant media; details: for solubility at 2 h / solubility at 24 h: 37 °C, thermodynamic from solid; for solubility at 2 h / solubility at 24 h / Solubility (mg/ mL) 2 h / Solubility (mg/ mL) 24 h: target 250 mg/mL (in free form); for pH of supernatant at 24 h / Solubility (mg/ mL) 2 h / Solubility (mg/ mL) 24 h: listed as L-Tartaric acid cocrystal Pattern A, hydrate
Method: To prepare the samples of (S)-4-((2-methoxyethyl)(4-(5,6,7,8-tetrahydro-1,8-naphthyridin-2-yl)butyl)amino)-2-(quinazolin-4-ylamino)butanoic acid L-tartaric acid cocrystal Pattern A, 80.6 mg was weighed into a 2 mL glass vial. Next, 0.18 mL of solubility medium was added. The salt amount used is equivalent to 45 mg of the amorphous free form. Obtained suspensions/solutions were stirred at 37° C. at 400 rpm and sampled at 2 h and at 24 h. The samples were centrifuged at 37° C. at 14,000 rpm for 5 min. Supernatants were analyzed by HPLC and pH meter for solubility and pH value, respectively. […]

[3] = VT-XRPD heating experiment; details: heated to 110° C. under dry nitrogen flow for about 30 min, then cooled to ambient (20-26° C., 20%-35% RH)
Method: The dried(S)-4-((2-methoxyethyl)(4-(5,6,7,8-tetrahydro-1,8-naphthyridin-2-yl)butyl)amino)-2-(quinazolin-4-ylamino)butanoic acid L-tartaric acid cocrystal Pattern A was also investigated by VT-XRPD experiments. The(S)-4-((2-methoxyethyl)(4-(5,6,7,8-tetrahydro-1,8-naphthyridin-2-yl)butyl)amino)-2-(quinazolin-4-ylamino)butanoic acid L-tartaric acid cocrystal Pattern A was heated to 110° C. under dry nitrogen flow for about 30 min and then cooled to ambient condition (20-26° C., 20%-35% RH). The obtained solid parts were investigated by XRPD.

[4] = FaSSGF (fasted state simulated gastric fluid), pH 1.6, fassgf or other biorelevant, FaSSGF, pH 1.6, 37° C.
[5] = FeSSIF-v1 (fed state simulated intestinal fluid), pH 5, fessif, FeSSIF-v1, pH 5.0, 37° C.
[6] = pH 1.2 HCl buffer, pH 1.2, simulated gastric fluid
[7] = pH 4.5 acetate buffer (50 mM), pH 4.5, aqueous buffer
[8] = pH 6.8 phosphate buffer (50 mM), 37° C.

purity decrease [1]: 2.1%
solubility at 2 h [2, 4]: 206 mg/mL (≈ 419 mM)
solubility at 24 h [2, 4]: 224 mg/mL (≈ 455 mM)
pH of supernatant at 24 h ([2]; FaSSGF, pH 1.6, 37° C.): (1.6)
Solubility (mg/ mL) 2 h ([2]; FaSSIF-v1, pH 6.5, 37° C.): 84.1 mg/mL (≈ 171 mM)
Solubility (mg/ mL) 24 h ([2]; FaSSIF-v1, pH 6.5, 37° C.): 63.2 mg/mL (≈ 128 mM)
pH of supernatant at 24 h ([2]; FaSSIF-v1, pH 6.5, 37° C.): (6.6)
solubility at 2 h [2, 5]: 203 mg/mL (≈ 413 mM)
solubility at 24 h [2, 5]: 217 mg/mL (≈ 440 mM)
pH of supernatant at 24 h ([2]; FeSSIF-v1, pH 5.0, 37° C.): (5.0)
pH of supernatant at 24 h ([2]; Water, 37° C.): (3.2)
pH of supernatant at 24 h ([2]; pH 1.2 HCl buffer, 37° C.): (1.4)
solubility at 2 h [2, 6]: 215 mg/mL (≈ 436 mM)
solubility at 24 h [2, 6]: 222 mg/mL (≈ 451 mM)
pH of supernatant at 24 h ([2]; pH 4.5 acetate buffer (50 mM), 37° C.): (4.4)
solubility at 2 h [2, 7]: 214 mg/mL (≈ 435 mM)
solubility at 24 h [2, 7]: 220 mg/mL (≈ 448 mM)
Solubility (mg/ mL) 2 h [2, 8]: 28.4 mg/mL (≈ 57.7 mM)
Solubility (mg/ mL) 24 h [2, 8]: 56.4 mg/mL (≈ 114 mM)
pH of supernatant at 24 h [2, 8]: (6.8)
solubility at 2 h ([2]; water): 207 mg/mL (≈ 421 mM)
solubility at 24 h ([2]; water): 218 mg/mL (≈ 442 mM)
XRPD after heating (VT-XRPD) [3]: no form change
SMILES: COCCN(CCCCc1ccc2c(n1)NCCC2)CC[C@H](Nc1ncnc2ccccc12)C(=O)O [Pattern A, (S)-4-((2-methoxyethyl)(4-(5,6,7,8-tetrahydro-1,8-naphthyridin-2-yl)butyl)amino)-2-(quinazolin-4-ylamino)butanoic acid]
